Patent US12414940B2, “Method of treating malignant tumor by azabicyclic compound” (TAIHO PHARMACEUTICAL CO., LTD., priority 2018, dated 2025)

What was measured:
[1] = Quantification of plasma, tumor and retinal tissue exposure in tumor-bearing rats; assay type: in vivo, F344 nude rats
Protocol: After the administration, plasma, the retina, and tumor were collected according to a sampling schedule. The retina or tumor samples were homogenized in phosphate-buffered saline. The plasma and the homogenized samples were analyzed by liquid chromatography-tandem mass spectrometry or high-performance liquid chromatography. The pharmacokinetics of the compound 1 were calculated by use of the non-compartmental analysis method (Methods Mol Biol 2012; 929: 377-89).

rat eye tissue = assay: Histopathological study in rat eye tissue (hematoxylin and eosin, TUNEL); assay type: in vivo, Sprague-Dawley (SD) rats
solid cancer patients [2] = assay: Phase I study in solid cancer patients: eye disorder related to treatment (ophthalmologic examination, CTCAE Ver. 4.03); assay type: in vivo
Protocol: The initial dose of Step 2 (level 1 of Step 2) was set to MTD (mg/m^2/day) of Step 1. The study was continued until the disease progressed or an intolerable adverse event occurred.
(§1) After determination of MTD for once-daily administration, administration was performed by once-daily administration, by alternate-day administration (repeated administration at cycles each involving one-day administration and one-day withdrawal period on the next day), or by a schedule involving administration for 5 consecutive days and 2-day withdrawal period, and evaluation was conducted.
In this test, ophthalmologic examination was conducted in order to evaluate eye disorder.
The ophthalmologic examination was carried out before enrollment, in the duration of administration, and during follow-up. In the duration of administration, ophthalmologic interview, visual acuity examination (corrected), intraocular pressure examination, fundus examination, slit-lamp microscopy, optical coherence tomography (OCT), and color perception examination were carried out for 21 days±1 day from the start of administration. Observation and examination before enrollment were carried out as immediately before the enrollment as possible. In addition to the determined ophthalmologic examination described above, ophthalmologic examination was appropriately carried out when eye problems were found by regular interview by clinical investigators or by declaration from patients themselves.

solid cancer patients [3] = assay: Phase I study in solid cancer patients: determination of maximum tolerated dose (MTD); assay type: in vivo, human; settings: for MTD: oral
Protocol: (§2) Purpose: This study was conducted for the purpose of determining a maximum tolerated dose (MTD) and estimating a recommended dose (RD) and an administration method when compound 1 was administered with one cycle set to 21 days targeting solid cancer patients, and of evaluating safety and observing an antitumor effect when the compound 1 was administered with one cycle set to 21 days targeting the patients, for example.
(§3) Method: The compound 1 was repeatedly administered between meals once a day in Step 1, and orally administered between meals every other day in Step 2. In Step 1, the initial dose was set to 4.8 mg/m^2 (level 1), and the dose of the compound 1 at each level was determined depending on a body surface area. The initial dose of Step 2 (level 1 of Step 2) was set to MTD (mg/m^2/day) of Step 1. The study was continued until the disease progressed or an intolerable adverse event occurred.
The dose (mg/body) to a study subject was calculated as described below. Dose (mg/body)=Dose (mg/m^2)×Body surface area (m^2)
The body surface area (BSA) was calculated to the second decimal place by rounding a value off to two decimal places using the formula of DuBois given below. The dose (mg/body) was calculated to an integer by rounding a value off to the closest whole number, and less than 2 mg was cut off because the minimum tablet dose in this study was 2 mg. BSA=([Body weight (kg)]0.425×[Body height (cm)]0.725)×0.007184

solid cancer patients [4] = assay: Phase I study in solid cancer patients: tumor response by RECIST Guideline Version 1.1; assay type: in vivo, human
Protocol: as §2, §3, §1
An antitumor effect on tumor was determined according to RECIST Guideline Version 1.1 (European Journal of Cancer 45 (2009) 228-247), and tumor shrinkage was evaluated by comprehensive evaluation on target lesions (lesions equal to or larger than a measurable size depending on a slice width in a diagnosis method (MRI, CT, X ray, etc.) measured at the time of enrollment) and non-target lesions (all lesions except for the target lesions).
The overall response of each case was evaluated according to the following criteria, and the best overall response was evaluated after confirmation of duration of the effect.
The best overall response was evaluated according to the following 5 levels. • CR: After reaching CR first, the CR status was maintained in examination performed after a lapse of at least 4 weeks or longer. • PR: After reaching PR first, the PR status was maintained in examination performed after a lapse of at least 4 weeks or longer. • SD: Neither CR nor PR was attained and no PD was confirmed in examination performed after a lapse of at least 6 weeks or longer from the start of administration. • PD: PD of target lesions or non-target lesions was confirmed without satisfying the criterion of CR, PR and SD, or the appearance of a new lesion was confirmed.
Proportion of cases with best overall response of CR and PR in an analyte population.
Proportion of cases with best overall response of CR, PR, Non-CR/non-PD, or SD continued for 12 weeks or longer in an analyte population.
Patients with non-small cell lung cancer, gastrointestinal stromal tumor, thymic cancer, biliary tract cancer, breast cancer, adenoid cystic cancer, pancreatic cancer, stomach cancer, ovary cancer, skin cancer, neuroblastoma, head and neck cancer, esophageal cancer, kidney cancer, colorectal cancer, sarcoma, mesothelioma, or the like entered the test.

[5] = tested on: patients with local progressive unresectable or metastatic GIST; assay: Study in GIST patients: safety, tolerability and eye disorder; assay type: in vivo, human; settings: 160 mg/body/day oral
Protocol: (§4) Purpose: In order to evaluate the effectiveness and safety, etc. of compound 1, this study was conducted for the purpose of evaluating the effectiveness and safety, etc. of the compound 1, targeting patients with local progressive unresectable or metastatic GIST who received the administration of imatinib, sunitinib or regorafenib in the past.
(§5) From the results of the study of Example 1, this study was carried out according to a schedule involving administration for 5 consecutive days and 2-day withdrawal period. The daily dose of the compound 1 was 160 mg/body/day for oral administration. One cycle was set to 21 days. The administration of the compound 1 was continued until the end date of the clinical trial or any of predetermined criterion for discontinuation were applicable.
For the evaluation of eye disorder, interview, visual acuity examination (corrected), intraocular pressure measurement, fundus examination, slit-lamp microscopy, optical coherence tomography (OCT), and color perception examination were carried out at the time of a baseline within 14 days before enrollment and at the completion of administration of the study drug.
Interview, visual acuity examination (corrected), intraocular pressure measurement, fundus examination, optical coherence tomography (OCT), slit-lamp microscopy, and color perception examination were further carried out as much as possible every 12 weeks after the start of administration of the study drug and every 24 weeks on week 48 or later (within ±7 days).
In addition to the determined ophthalmologic examination described above, ophthalmologic examination was appropriately carried out when eye problems were found by regular interview by clinical investigators or by declaration from patients themselves.

[6] = Quantification of plasma and retinal tissue exposure after intravenous administration; assay type: in vivo, F344 nude rats; settings: 30 minutes and 6 hours after administration
Protocol: Method: Compound 1 was administered to tumor-bearing F344 nude rats by intravenous administration. Plasma and the retina were collected 30 minutes and 6 hours after the administration. The retina samples were homogenized in phosphate-buffered saline. The plasma and the homogenized samples were analyzed by liquid chromatography-tandem mass spectrometry or high-performance liquid chromatography. The pharmacokinetics of the compound 1 were calculated by use of the non-compartmental analysis method (Methods Mol Biol 2012; 929: 377-89).

[7] = tested on: patients with local progressive unresectable or metastatic GIST; assay: Study in GIST patients: progression-free survival (RECIST Guideline Version 1.1); assay type: in vivo, human; settings: 160 mg/body/day oral, 5 consecutive days and 2-day withdrawal period
Protocol: as §4, §5
For the evaluation of an antitumor effect, CT scan was carried out before the start of administration, every 3 weeks for subsequent 6 weeks, every 6 weeks for subsequent 3 months, and then every 8 weeks until the end of the test. Progression-free survival (PFS) stipulated by RECIST Guideline Version 1.1 was evaluated.

[8] = tested on: progressive or unresectable GIST; settings: group given regorafenib, third-line treatment of progressive or unresectable GIST; cited from earlier work
[9] = 10.0 mg/kg/day intravenous three times a week for 2 weeks, eyes collected 24 hours after final dose
[10] = oral administration, tumor-bearing rats
[11] = rats, administered for consecutive days (Non-Patent Literature 6)
[12] = QD Step 1 Dose escalation, Lv. 6 (107.5 mg/m^2) n = 6
[13] = QOD Step 2 Expansion (340 mg/body) n = 6
[14] = administration for consecutive days
[15] = 5 consecutive days and 2-day withdrawal period
[16] = 12 mg/kg/day oral every day for 2 weeks, eyes collected 24 hours after final dose

CCNC(=O)c1noc(-c2cc(C(C)C)c(O)cc2O)c1-c1ccc(CN2CCOCC2)cc1 [NVP-AUY922, reference compound]
presence in the retina 24 hours after administration ([1]; intravenous administration, tumor-bearing rats): detected from the retina even 24 hours after administration
histopathological change in the outer nuclear layer of the retina (rat eye tissue; [9]): marked degeneration and disarrangement
number of TUNEL-positive apoptotic cells (rat eye tissue; [9]): considerably increase

CCc1cc(C(N)=O)ccc1-n1nc(C(C)C)c2c(-n3cnc(-c4cnn(C)c4)c3)ccnc21 [compound 1, 3-Ethyl-4-[3-(1-methylethyl)-4-[4-(1-methyl-1H-pyrazol-4-yl)-1H-imidazol-1-yl]-1H-pyrazolo[3,4-b]pyridin-1-yl]benzamide]
distribution in tumor, retina and plasma [1, 10]: larger amount in tumor than in the retina and plasma
time to removal from the retina [1, 10]: ≤ 24 h
time to elimination from the rat retina [1, 11]: ≤ 24 h
Eye Disorder, G2 (solid cancer patients [2]; QD Step 1 Dose escalation, Lv. 1 to 5 (4.8-76.8 mg/m^2) n = 7): 1 (14.3) n (%)
Eye Disorder, G2 (solid cancer patients [2]; [12]): 2 (33.3) n (%)
Eye disorder, G1 (solid cancer patients [2]; [12]): 3 (50.0) n (%)
Eye Disorder, ≥G3 (solid cancer patients [2]; QD Step 1 Dose escalation, Lv. 7 (150.5 mg/m^2) n = 3): 2 (66.7) n (%)
Eye disorder, G1 (solid cancer patients [2]; QD × 5 (5-day administration 2-day drug holiday) Step 1 Expansion (160 mg/body) n = 19): 5 (26.3) n (%)
Eye disorder, G1 (solid cancer patients [2]; QOD Step 2 Dose escalation, Lv. 1 to 2 (107.5-150.5 mg/m^2) n = 9): 2 (22.2) n (%)
Eye disorder, G1 (solid cancer patients [2]; QOD Step 2 Dose escalation, Lv. 3 (210.7 mg/m^2) n = 6): 1 (16.7) n (%)
Eye disorder, G1 (solid cancer patients [2]; QOD Step 2 Dose escalation, Lv. 4 (295.0 mg/m^2) n = 5): 1 (16.7) n (%)
Eye Disorder, G2 (solid cancer patients [2]; [13]): 1 (20.0) n (%)
Eye disorder, G1 (solid cancer patients [2]; [13]): 3 (60.0) n (%)
degree of eye disorder at MTD (solid cancer patients [2]; alternate-day administration group): limited to grade 1
degree of eye disorder at MTD (solid cancer patients [2]; group given administration for 5 consecutive days and 2-day withdrawal period): limited to grade 1
Eye Disorder, G2 (solid cancer patients [2]; human, in vivo): 4 (6.6) n (%)
Eye Disorder, ≥G3 (solid cancer patients [2]; human, in vivo): 2 (3.3) n (%)
Eye disorder, G1 (solid cancer patients [2]; human, in vivo): 14 (23.0) n (%)
side effect on vision (solid cancer patients [2]; phase I clinical trial, administration for consecutive days): caused a side effect for vision impairment
MTD converted to the fixed dose (solid cancer patients [3]; [14]): 160 mg/body/day
MTD (solid cancer patients [3]; [14]): 107.5 mg/m^2/day
MTD converted to the fixed dose (solid cancer patients [3]; alternate-day administration): 340 mg/body/day
MTD (solid cancer patients [3]; alternate-day administration): 210 mg/m^2/day
DCR (≥12 weeks), % of patients (solid cancer patients [4]; QD × 5, n = 18): (38.9) %
DCR (≥12 weeks), number of patients (solid cancer patients [4]; QD × 5, n = 18): 7
NE, % of patients (solid cancer patients [4]; QD × 5, n = 18): (5.6) %
NE, number of patients (solid cancer patients [4]; QD × 5, n = 18): 1
PD, % of patients (solid cancer patients [4]; QD × 5, n = 18): (44.4) %
PD, number of patients (solid cancer patients [4]; QD × 5, n = 18): 8
PR, % of patients (solid cancer patients [4]; QD × 5, n = 18): (0.0) %
PR, number of patients (solid cancer patients [4]; QD × 5, n = 18): 0
RR, % of patients (solid cancer patients [4]; QD × 5, n = 18): (0.0) %
RR, number of patients (solid cancer patients [4]; QD × 5, n = 18): 0
DCR (≥12 weeks), % of patients (solid cancer patients [4]; QD, n = 16): (31.3) %
DCR (≥12 weeks), number of patients (solid cancer patients [4]; QD, n = 16): 5
NE, % of patients (solid cancer patients [4]; QD, n = 16): (12.5) %
NE, number of patients (solid cancer patients [4]; QD, n = 16): 2
PD, % of patients (solid cancer patients [4]; QD, n = 16): (31.3) %
PD, number of patients (solid cancer patients [4]; QD, n = 16): 5
PR, % of patients (solid cancer patients [4]; QD, n = 16): (12.5) %
PR, number of patients (solid cancer patients [4]; QD, n = 16): 2
RR, % of patients (solid cancer patients [4]; QD, n = 16): (12.5) %
RR, number of patients (solid cancer patients [4]; QD, n = 16): 2
DCR (≥12 weeks), % of patients (solid cancer patients [4]; QOD, n = 26): (14.4) %
DCR (≥12 weeks), number of patients (solid cancer patients [4]; QOD, n = 26): 4
NE, % of patients (solid cancer patients [4]; QOD, n = 26): (3.8) %
NE, number of patients (solid cancer patients [4]; QOD, n = 26): 1
PD, % of patients (solid cancer patients [4]; QOD, n = 26): (57.7) %
PD, number of patients (solid cancer patients [4]; QOD, n = 26): 15
PR, % of patients (solid cancer patients [4]; QOD, n = 26): (3.8) %
PR, number of patients (solid cancer patients [4]; QOD, n = 26): 1
RR, % of patients (solid cancer patients [4]; QOD, n = 26): (3.8) %
RR, number of patients (solid cancer patients [4]; QOD, n = 26): 1
frequency of occurrence of eye disorder [5, 15]: 20%
grade of eye disorder in all the patients [5, 15]: grade 1
tolerability [5, 15]: good tolerability
related adverse events observed ([5]; 5 consecutive days and 2-day withdrawal, reversible by discontinuation or decrease in dose): digestive tract disorder and elevated plasma creatinine levels
elevation of the number of TUNEL-positive apoptotic cells (rat eye tissue; [16]): not observed
histopathological change in the outer nuclear layer of the retina (rat eye tissue; [16]): did not cause any histopathological change
ocular toxicity (rat eye tissue; [11]): without exhibiting ocular toxicity
distribution in retina versus plasma [6]: lower in the retina than in plasma
median PFS [7]: 4.4 months

CNC(=O)c1cc(Oc2ccc(NC(=O)Nc3ccc(Cl)c(C(F)(F)F)c3)c(F)c2)ccn1 [regorafenib]
median PFS [8]: 4.8 month
